Patent EP0380554B1, “VASOACTIVE PEPTIDES” (Ferring AB, priority 1987, dated 1993)

Test system: anaesthetised Sprague Dawley rats
Experiment: Blood pressure test (4-point test against the standard AVP)
Type: in vivo
Conditions: result in words; for length of the effect (index of persistence, I.P.): duration of the blood pressure effect in relation to standard AVP, compared with known substances 1, 2 and 3; for potency in respect of blood pressure increase: maximal blood pressure increase after intravenous injections, rats previously treated with dibenamine, related to standard AVP, compared with known derivatives 2 and 3; for specificity (ratio of potency blood pressure/potency antidiuresis, BP/AD): ratio of blood pressure potency to antidiuretic potency, compared with known compounds 1, 2 and 3
Text: Vasotocin derivatives according to the invention have been tested for potency of both blood pressure and antidiuretic activity in a so-called 4-point test, i.e. the activity of the test substances has been related to a standard preparation (AVP = arginine-vasopressin), and the effects of two dose levels for each substance have been analysed. In addition, two known pressor-specific analogs (VT derivatives) have been tested for a comparison, namely 1-mpa-2-Phe-8-Orn-VT (mpa = 3-mercaptopropionyl) (Huguenin, R.L., Boissonnas, R.A., 1966. Helv. Chim. Acta, 49, 711), and 2-Phe-8-Orn-VT (SE-332993, Sandoz).
Blood pressure tests were carried out on anaesthetised Sprague Dawley rats (about 250 g), previously treated with dibenamine (Dekanski, J., 1952. Br. J. Pharmacol. 7, 567). Maximal blood pressure increase after intravenous injections of peptide was used as a measure of the effect, expressed as intensity.
In addition to potency determination based on effect intensity, a measure of the length of the effect has been stated (index of persistence (I.P.), Pli ? ka, V., 1966. Arzheim. Forsch. 16, 886). This dimensionless factor is a measure of the effect duration of the respective analog in relation to the standard AVP.
In these two tests, a comparison was made between the effects of the respective derivative and the effect of a standard preparation, AVP, and potency was determined with the aid of a 4-point test and is indicated in international units per milligram (IU/mg) (Stürmer, E., i: Handbook of Experimental Pharmacology, 1966, Vol 23, pp 130-189).

Row | Substance | length of the effect (index of persistence, I.P.) | potency in respect of blood pressure increase | specificity (ratio of potency blood pressure/potency antidiuresis, BP/AD)
1 | 1-Hmp-2-Phe-8-Orn(Ala)-VT [compound 6] | considerably prolonged effect | surprisingly high blood pressure potency | adequate specificity
2 | 1-Hmp-2-Phe-8-Orn-VT [compound 4] | – | very high potency | equivalent or higher specificity
3 | 1-Hmp-2-Phe-8-Dab-VT [compound 5] | – | very high potency | equivalent or higher specificity
4 | Gly^o-1-Hmp-2-Phe-8-Orn-VT [compound 7] | considerably prolonged effect | surprisingly high blood pressure potency | adequate specificity
